These results are taken from patent US9493436B2, “Tyrosine phosphatase inhibitors and uses thereof to modulate the activity of enzymes involved in the pathology of Mycobacterium tuberculosis” (priority 2011, dated 2016).

“And” between values parts separate entries of the source, which are not always exact repeats. Equal values may be shown once. “Also recorded” adds a separate entry of the source. Read-outs that look alike come from different tables or passages of the source.

In data set [1] the target is SHP1 (Homo sapiens, UniProt P29350). Format: biochemical.
Data set [2] has as its system IL-6 secretion in cells expressing mPTPB. The experiment in a line: IL-6 secretion in cells expressing mPTPB. In kind it is cell-based. Particulars: especially at 120 and 240 nM. An excerpt: As explained above, ERK phosphorylation is important in the cellular secretion pathway of IL-6. However, mPTPB blocks or inhibits the phosphorylation of ERK which reduces and potentially prevents IL-6 secretion altogether.

In data set [3] the target is VHR (Homo sapiens, UniProt P51452). Particulars: read-out: IC50 (μM) VHR.
Data set [4] has as its system Akt phosphorylation in Raw264.7 cells expressing mPTPB. In kind it is cell-based, mouse. Particulars: macrophage cells expressing mPTPB, increasing concentrations.
Data set [5] concerns the target T1, Cdc14A (Homo sapiens, UniProt Q9UNH5).
T1 sequence (Q9UNH5 1-594): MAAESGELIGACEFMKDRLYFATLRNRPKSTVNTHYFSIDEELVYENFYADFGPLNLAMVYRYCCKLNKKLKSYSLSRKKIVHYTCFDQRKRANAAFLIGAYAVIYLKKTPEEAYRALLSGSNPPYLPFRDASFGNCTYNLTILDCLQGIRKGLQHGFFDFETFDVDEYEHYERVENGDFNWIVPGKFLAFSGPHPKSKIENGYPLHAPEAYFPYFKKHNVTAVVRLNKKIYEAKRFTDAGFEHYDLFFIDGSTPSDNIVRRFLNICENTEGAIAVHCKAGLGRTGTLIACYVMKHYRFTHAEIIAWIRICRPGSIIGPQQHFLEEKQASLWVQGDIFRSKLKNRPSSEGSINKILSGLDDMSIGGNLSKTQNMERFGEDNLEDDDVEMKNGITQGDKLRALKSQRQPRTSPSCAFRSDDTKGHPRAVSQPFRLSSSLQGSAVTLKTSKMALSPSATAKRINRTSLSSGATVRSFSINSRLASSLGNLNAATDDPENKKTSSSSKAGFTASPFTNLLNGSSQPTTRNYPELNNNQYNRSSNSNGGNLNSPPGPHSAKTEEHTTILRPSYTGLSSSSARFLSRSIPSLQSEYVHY
In words: PTP selectivity panel: Cdc14A. Format: biochemical.

Data set [6] deals with LMWPTP (Homo sapiens, UniProt P24666). The experiment in a line: PTP selectivity panel: LMWPTP. In kind it is biochemical.
Data set [7] is described as follows: Oral and intravenous pharmacokinetics in mice. In kind it is in vivo. On the procedure:
Oral and intravenous (IV) pharmacokinetics were determined for compounds L01-Z06, L01-Z08 and L01-Z09 in mice. Drugs were administered by a single IV injection (5 mg/kg) or oral gavage (25 mg/kg) in 20% hydroxypropyl-b-cyclodextrin/2% diethanolamine and blood samples were collected at 0.5, 1, 3, 6, 9 and 24 hours later. All three compounds were readily administered by both IV and oral routes. […] Drug levels peaked at […] after IV injection, or […] after oral gavage. Based on these parameters, all three compounds are classified as highly permeable with moderate-slow clearance rates.

Data set [8] deals with Caspase 3 activity in macrophage cells expressing mPTPB. In kind it is cell-based. Particulars: especially at 120 and 240 nM.
In data set [9] the target is SHP2 (Homo sapiens, UniProt Q06124). Particulars: read-out: IC50 (μM) SHP2.
Data set [10] concerns the target Meg2 (Homo sapiens, UniProt P43378). To be noted: read-out: IC50 (μM) Meg2.
The target in data set [11] is SHP2-D2C (Homo sapiens, UniProt Q06124). The experiment in a line: biochemical. In kind it is biochemical.
Data set [12] has as its target T2, mPTPB (Mycobacterium tuberculosis, UniProt I6WXK4).
T2 construct: The full-length mPTPB with a N-terminal His6-tag was expressed and purified; His6 (N); made in house; host or cells: E. coli BL21/DE3 (pET28b-mPTPB)
T2 sequence (I6WXK4 1-276): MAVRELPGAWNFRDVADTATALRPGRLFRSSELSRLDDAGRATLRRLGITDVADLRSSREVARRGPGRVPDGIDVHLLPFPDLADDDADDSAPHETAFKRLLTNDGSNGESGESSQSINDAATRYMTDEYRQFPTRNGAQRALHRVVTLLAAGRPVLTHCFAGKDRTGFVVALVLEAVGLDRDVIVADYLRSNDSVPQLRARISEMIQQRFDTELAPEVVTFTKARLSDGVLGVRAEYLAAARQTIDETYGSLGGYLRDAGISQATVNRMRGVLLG
In words: biochemical. In kind it is biochemical.

Data set [13] concerns the target mPTPA (Mycobacterium tuberculosis, UniProt P9WIA1). In words: PTP selectivity panel: mPTPA. Format: biochemical.
Data set [14] has as its target T3, HePTP (Homo sapiens, UniProt P35236).
T3 sequence (P35236 1-360): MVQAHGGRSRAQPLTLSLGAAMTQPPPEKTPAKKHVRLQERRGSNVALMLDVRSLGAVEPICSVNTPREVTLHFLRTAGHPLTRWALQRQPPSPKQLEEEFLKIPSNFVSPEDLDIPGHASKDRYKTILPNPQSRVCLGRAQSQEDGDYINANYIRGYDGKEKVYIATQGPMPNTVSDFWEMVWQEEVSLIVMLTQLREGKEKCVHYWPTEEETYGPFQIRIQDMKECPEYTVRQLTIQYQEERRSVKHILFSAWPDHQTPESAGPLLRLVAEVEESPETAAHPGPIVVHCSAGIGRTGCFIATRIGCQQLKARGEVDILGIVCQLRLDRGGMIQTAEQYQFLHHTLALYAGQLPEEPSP
The experiment in a line: biochemical. Format: biochemical.

The target of data set [15] is YopH (UniProt P15273). In kind it is biochemical. To be noted: read-out: IC50 (μM) YopH.
The target of data set [16] is SHP1-D1C (Homo sapiens, UniProt P29350). In words: biochemical.
Sequence of SHP1-D1C (P29350 244-528 limits assumed): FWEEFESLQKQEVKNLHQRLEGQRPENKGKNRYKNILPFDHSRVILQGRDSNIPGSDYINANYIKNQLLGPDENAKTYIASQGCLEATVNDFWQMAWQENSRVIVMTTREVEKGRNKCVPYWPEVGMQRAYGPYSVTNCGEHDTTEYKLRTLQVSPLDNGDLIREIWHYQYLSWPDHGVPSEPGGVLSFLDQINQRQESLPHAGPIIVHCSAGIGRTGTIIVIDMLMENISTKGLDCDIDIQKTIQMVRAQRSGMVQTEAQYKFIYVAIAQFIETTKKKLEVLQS

Sequence of SHP2-D2C (Q06124 224-528 limits assumed): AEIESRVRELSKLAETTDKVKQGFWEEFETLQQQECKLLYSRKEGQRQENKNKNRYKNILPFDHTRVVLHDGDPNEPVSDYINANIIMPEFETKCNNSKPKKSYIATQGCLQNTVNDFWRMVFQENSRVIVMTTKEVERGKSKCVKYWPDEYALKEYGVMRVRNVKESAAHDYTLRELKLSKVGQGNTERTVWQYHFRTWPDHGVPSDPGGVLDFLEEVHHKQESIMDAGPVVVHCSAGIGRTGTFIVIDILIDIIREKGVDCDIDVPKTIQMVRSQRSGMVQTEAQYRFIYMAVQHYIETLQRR
Sequence of LMWPTP (P24666 whole entry, species assumed): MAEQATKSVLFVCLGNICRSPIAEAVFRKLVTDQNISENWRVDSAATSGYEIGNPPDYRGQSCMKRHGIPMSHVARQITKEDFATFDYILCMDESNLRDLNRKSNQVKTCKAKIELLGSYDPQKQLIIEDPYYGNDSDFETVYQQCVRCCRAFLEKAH
Sequence of mPTPA (P9WIA1 whole entry): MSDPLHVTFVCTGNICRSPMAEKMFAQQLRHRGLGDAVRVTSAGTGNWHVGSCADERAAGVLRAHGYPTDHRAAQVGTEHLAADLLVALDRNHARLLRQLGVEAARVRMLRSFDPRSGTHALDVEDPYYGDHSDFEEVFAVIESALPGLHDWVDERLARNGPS
Sequence of SHP1 (P29350 whole entry): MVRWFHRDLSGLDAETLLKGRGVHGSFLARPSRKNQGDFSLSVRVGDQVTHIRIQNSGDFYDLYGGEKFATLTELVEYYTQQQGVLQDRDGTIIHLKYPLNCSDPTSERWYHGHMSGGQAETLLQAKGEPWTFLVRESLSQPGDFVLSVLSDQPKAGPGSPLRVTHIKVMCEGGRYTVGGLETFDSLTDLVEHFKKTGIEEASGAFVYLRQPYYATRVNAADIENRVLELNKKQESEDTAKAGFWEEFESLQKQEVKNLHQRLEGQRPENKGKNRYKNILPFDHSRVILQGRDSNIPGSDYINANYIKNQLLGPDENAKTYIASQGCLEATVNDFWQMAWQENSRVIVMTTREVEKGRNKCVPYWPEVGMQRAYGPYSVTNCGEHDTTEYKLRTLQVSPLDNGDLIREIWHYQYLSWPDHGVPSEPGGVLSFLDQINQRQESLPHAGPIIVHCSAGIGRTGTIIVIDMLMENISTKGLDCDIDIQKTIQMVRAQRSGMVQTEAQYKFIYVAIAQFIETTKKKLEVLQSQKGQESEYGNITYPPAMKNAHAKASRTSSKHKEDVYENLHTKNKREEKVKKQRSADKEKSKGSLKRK
Sequence of Meg2 (P43378 whole entry): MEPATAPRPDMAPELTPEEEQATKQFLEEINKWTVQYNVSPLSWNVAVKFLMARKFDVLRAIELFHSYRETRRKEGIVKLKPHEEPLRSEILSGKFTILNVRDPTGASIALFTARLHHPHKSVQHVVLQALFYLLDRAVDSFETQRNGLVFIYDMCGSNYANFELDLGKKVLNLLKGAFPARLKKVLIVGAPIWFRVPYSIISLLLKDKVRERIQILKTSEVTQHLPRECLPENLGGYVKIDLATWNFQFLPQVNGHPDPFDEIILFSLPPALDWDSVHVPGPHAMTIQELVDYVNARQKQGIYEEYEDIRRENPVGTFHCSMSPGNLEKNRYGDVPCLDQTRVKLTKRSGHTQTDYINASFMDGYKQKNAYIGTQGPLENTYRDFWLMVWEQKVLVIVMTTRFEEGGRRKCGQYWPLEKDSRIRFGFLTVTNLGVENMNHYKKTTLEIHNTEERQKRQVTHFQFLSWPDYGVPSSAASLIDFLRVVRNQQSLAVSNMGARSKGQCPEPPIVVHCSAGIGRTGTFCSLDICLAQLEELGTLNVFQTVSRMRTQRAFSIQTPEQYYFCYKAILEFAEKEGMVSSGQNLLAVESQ
Sequence of YopH (P15273 whole entry, looked up): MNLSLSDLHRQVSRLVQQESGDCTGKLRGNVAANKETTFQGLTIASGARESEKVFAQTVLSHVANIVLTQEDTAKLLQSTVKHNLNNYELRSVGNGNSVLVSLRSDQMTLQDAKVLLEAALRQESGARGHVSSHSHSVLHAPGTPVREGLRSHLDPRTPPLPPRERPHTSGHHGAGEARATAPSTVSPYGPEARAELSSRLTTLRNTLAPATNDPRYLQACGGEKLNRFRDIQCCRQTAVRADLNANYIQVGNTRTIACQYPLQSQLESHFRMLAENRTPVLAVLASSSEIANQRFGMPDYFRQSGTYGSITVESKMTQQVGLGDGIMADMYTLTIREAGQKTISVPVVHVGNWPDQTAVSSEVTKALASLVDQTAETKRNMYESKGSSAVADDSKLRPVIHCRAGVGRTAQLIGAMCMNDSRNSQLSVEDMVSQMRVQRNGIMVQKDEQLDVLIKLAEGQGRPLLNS
Sequence of VHR (P51452 whole entry, species assumed): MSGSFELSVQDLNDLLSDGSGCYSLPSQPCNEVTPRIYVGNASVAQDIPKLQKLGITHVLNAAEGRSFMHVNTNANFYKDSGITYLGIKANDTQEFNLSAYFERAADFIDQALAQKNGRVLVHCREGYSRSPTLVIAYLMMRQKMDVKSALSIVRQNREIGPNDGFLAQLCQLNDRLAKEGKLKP
Sequence of SHP2 (Q06124 whole entry, species assumed): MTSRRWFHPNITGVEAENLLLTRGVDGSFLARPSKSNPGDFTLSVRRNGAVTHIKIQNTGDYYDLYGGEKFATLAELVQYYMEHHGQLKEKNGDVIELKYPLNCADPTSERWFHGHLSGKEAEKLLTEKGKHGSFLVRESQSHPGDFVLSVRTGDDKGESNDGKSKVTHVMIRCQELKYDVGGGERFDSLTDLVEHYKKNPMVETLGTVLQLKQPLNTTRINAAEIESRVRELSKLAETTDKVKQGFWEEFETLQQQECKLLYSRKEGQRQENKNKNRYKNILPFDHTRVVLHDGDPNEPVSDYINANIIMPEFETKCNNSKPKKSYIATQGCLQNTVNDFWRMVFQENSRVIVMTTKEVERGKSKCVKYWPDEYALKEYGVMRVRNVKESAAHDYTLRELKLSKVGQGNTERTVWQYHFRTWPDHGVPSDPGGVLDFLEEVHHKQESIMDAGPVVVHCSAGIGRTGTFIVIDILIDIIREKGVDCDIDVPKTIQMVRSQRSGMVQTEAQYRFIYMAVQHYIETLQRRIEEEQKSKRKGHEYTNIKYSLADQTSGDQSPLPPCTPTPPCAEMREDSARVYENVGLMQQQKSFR

As to `O=C(O)c1cc2c(C#Cc3cccc(C(F)(F)F)c3)c(-c3ccccc3)oc2cc1O` [32 (L01Z08)], the IC50 in [1] was determined as 2.3 ± 0.3 µM; in [3], 1.9 ± 0.4 µM; in data set [5], 6 ± 1 µM; in data set [6], 4.3 ± 0.6 µM; in data set [9], 1.8 ± 0.2 µM; in [10] it was 4.3 ± 0.5 µM. Moreover, in data set [2], the IL-6 secretion result was “returned to normal or near normal IL-6 secretion levels”. Besides, the “AKT phosphorylation / Akt activation” value in data set [4] was “phosphorylation decreasing with treatments of increasing concentrations”. The “clearance ranking among the three compounds” value in data set [7] (mice) was “slowest clearance of the three”. Also, the “Clearance % LPF” value came to 28.9 % LPF in data set [7] (mice, IV 5 mg/kg) and 38.2 % LPF in data set [7] (mice, PO 25 mg/kg). For the same molecule, the “Vdss” value in data set [7] (mice, PO 25 mg/kg) is reported as 6.58 L/kg. Also, the “clearance” value was 20.602 mL/min/kg in data set [7] (mice, PO 25 mg/kg) and 15.6 mL/min/kg in data set [7] (mouse, blood, mice, IV 5 mg/kg, data normalized to 25 mg/kg dose, read-out: Clearance (converted)). The “time active levels (sufficient to inhibit target activity by 80% in cells) maintained” value in data set [7] (mice, after oral delivery) was found to be 18.5 h. Further, the Tmax in data set [7] (mouse, blood, iv, 5 mg/kg, mice, IV 5 mg/kg) amounted to 0.5 h. The half-life was 4.1 h in data set [7] (mouse, blood, mice, IV 5 mg/kg) and 3.7 h in data set [7] (mouse, blood, mice, PO 25 mg/kg). In addition, the Cmax in data set [7] (mouse, blood, mice, IV 5 mg/kg, data normalized to 25 mg/kg dose, read-out: Cmax (ng/mL)) stood at 10200 ng/mL; in [7] (mouse, blood, mice, IV 5 mg/kg, data normalized to 25 mg/kg dose, read-out: Cmax nM), 25500 nM; in data set [7] (mouse, blood, mice, PO 25 mg/kg, read-out: Cmax (ng/mL)) it was 2880 ng/mL; in [7] (mouse, blood, mice, PO 25 mg/kg, read-out: Cmax nM), 7210 nM. The Vd in [7] (mouse, blood, mice, IV 5 mg/kg, read-out: Vdss) was determined as 5.53 L/kg. Also, the bioavailability in data set [7] (mouse, blood, mice, PO 25 mg/kg vs IV 5 mg/kg, read-out: Absolute Bioavailability (oral)) was determined as 75.6%. In addition, the “oral pK values over the 24 hour duration of the assay” value in data set [7] (oral, 24 hours) is recorded as “remain relatively constant”. Moreover, the “caspase 3 activity” value in [8] is “returns caspase 3 activity to near normal levels”.

With `Cn1c(-c2ccccc2C(F)(F)F)c(I)c2cc(C(=O)O)c(O)cc21` [Compound 207a, 6-hydroxy-3-iodo-1-methyl-2-(2-(trifluoromethyl)phenyl)-1H-indole-5-carboxylic acid], the IC50 in [11] is 87 ± 4 µM; in data set [12] (pNPP substrate, pH 7.0, 25° C., read-out: IC50 (μM) against mPTPB) it was 1.2 µM and 1.18 µM; in data set [13], 82 ± 1 µM; in data set [14], 86 ± 6 µM; in data set [15], 220 ± 20 µM; in data set [16], 86.8 ± 0.4 µM. For the same molecule, in [12] (kinetic analyses, Lineweaver-Burk plot), the “mode of mPTPB inhibition” value is “Non-competitive inhibition; also recorded: reversible and noncompetitive inhibitor”. The Ki in data set [12] (pH 7.0, 25° C.) is 1.21 ± 0.04 µM. Further, in data set [12] (panel of 11 PTPs), the “selectivity for mPTPB over the other ten PTPs” value amounted to 47 fold.

Usually IC50 stands for the concentration that inhibits the measured activity by half. By Tmax is commonly meant the time at which the peak concentration occurs. As a reminder, the half-life is the time in which the quantity being followed falls by half. Low readings indicate rapid decline, high ones slow decline. Usually bioavailability stands for dose-corrected exposure relative to a reference, in per cent. Usually Ki stands for a dissociation constant, usually derived from enzyme kinetics or from competition with a known ligand. A high value points to weaker binding.
